In patent US20130096119A1, “Isoquinolin-3-Ylurea Derivatives” (priority 2010, published 2013):
≈ marks a conversion by molar mass, not a printed value.

Test system: S. pneumoniae ATCC 49619
Assay: Minimal inhibitory concentration (MIC) by microdilution method (CLSI M7-A7)
Format: cell-based, Streptococcus pneumoniae
Details: Streptococcus pneumoniae, ATCC49619, cation-adjusted Mueller-Hinton Broth supplemented with 3% (v/v) lysed horse blood
Method: Minimal inhibitory concentrations (MICs; mg/l) were determined in cation-adjusted Mueller-Hinton Broth (supplemented with 3% (v/v) lysed horse blood for testing Streptococcus pneumoniae) by a microdilution method following the description given in “Methods for Dilution Antimicrobial Susceptibility Tests for Bacteria that Grow Aerobically”, Approved standard, 7th ed., Clinical and Laboratory Standards Institute (CLSI) Document M7-A7, Wayne, Pa., USA, 2006.

SMILES	MIC
CCNC(=O)Nc1cc2cccc(Nc3ccc(C(N)=O)cn3)c2cn1.Cl [Example 156, 6-[3-(3-ethyl-ureido)-isoquinolin-8-ylamino]-nicotinamide hydrochloride]	2 µg/mL
CCNC(=O)Nc1cc2c(F)c(-c3cnc4ccccc4c3)cc(C)c2cn1 [Example 143, 1-ethyl-3-[5-fluoro-8-methyl-6-(quinolin-3-yl)-isoquinolin-3-yl]-urea]	0.125 µg/mL (≈ 0.334 µM)
CCNC(=O)Nc1cc2c(-c3cscn3)ccc(Nc3cccc(OC)n3)c2cn1 [Example 290, 1-ethyl-3-[8-(6-methoxy-pyridin-2-ylamino)-5-thiazol-4-yl-isoquinolin-3-yl]-urea]	0.5 µg/mL (≈ 1.19 µM)
CCNC(=O)Nc1cc2cc(-c3ccc4nccn4c3)cc(C)c2cn1 [Example 25, 1-ethyl-3-(6-imidazo[1,2-a]pyridin-6-yl-8-methyl-isoquinolin-3-yl)-urea]	0.5 µg/mL (≈ 1.45 µM)
CCNC(=O)Nc1cc2cccc(Nc3cccnc3OC)c2cn1.Cl [Example 291, 1-ethyl-3-[8-(2-methoxy-pyridin-3-ylamino)-isoquinolin-3-yl]-urea hydrochloride]	4 µg/mL
CCNC(=O)Nc1cc2cccc(CNc3cc(C)on3)c2cn1.Cl [Example 301, 1-ethyl-3-{8-[(5-methyl-isoxazol-3-ylamino)-methyl]-isoquinolin-3-yl}-urea hydrochloride]	4 µg/mL
CCNC(=O)Nc1cc2cccc(Nc3ccc(OC)c(C(=O)N(C)C)c3)c2cn1 [Example 244, 5-[3-(3-ethyl-ureido)-isoquinolin-8-ylamino]-2-methoxy-N,N-dimethyl-benzamide]	2 µg/mL (≈ 4.91 µM)
CCNC(=O)Nc1cc2cc(NCc3ccnc(N4CCOCC4)c3)cc(C)c2cn1 [Example 185, 1-ethyl-3-{8-methyl-6-[(2-morpholin-4-yl-pyridin-4-ylmethyl)-amino]-isoquinolin-3-yl}-urea]	4 µg/mL (≈ 9.51 µM)
CCNC(=O)Nc1cc2cccc(CNc3ccnn3C)c2cn1.Cl [Example 303, 1-ethyl-3-{8-[(2-methyl-2H-pyrazol-3-ylamino)-methyl]-isoquinolin-3-yl}-urea hydrochloride]	4 µg/mL
CCNC(=O)Nc1cc2cccc(Nc3cc(C)ccn3)c2cn1.Cl [Example 162, 1-ethyl-3-[8-(4-methyl-pyridin-2-ylamino)-isoquinolin-3-yl]-urea hydrochloride]	2 µg/mL
CCNC(=O)Nc1cc2cc(-c3cccnc3)cc(C)c2cn1 [Example 16, 1-ethyl-3-(8-methyl-6-pyridin-3-yl-isoquinolin-3-yl)-urea]	2 µg/mL (≈ 6.53 µM)
CCNC(=O)Nc1cc2c(F)c(-c3cccnc3)cc(C)c2cn1 [Example 47, 1-ethyl-3-(5-fluoro-8-methyl-6-pyridin-3-yl-isoquinolin-3-yl)-urea]	2 µg/mL (≈ 6.17 µM)
CCNC(=O)Nc1cc2cccc(CNc3cc(C)ns3)c2cn1 [Example 192, 1-ethyl-3-{8-[(3-methyl-isothiazol-5-ylamino)-methyl]-isoquinolin-3-yl}-urea]	2 µg/mL (≈ 5.86 µM)
CCNC(=O)Nc1cc2c(-c3ccnc(Cl)c3)ccc(C)c2cn1 [Example 27, 1-[5-(2-chloro-pyridin-4-yl)-8-methyl-isoquinolin-3-yl]-3-ethyl-urea]	2 µg/mL (≈ 5.87 µM)
CCNC(=O)Nc1cc2cc(-c3ccsc3)cc(C)c2cn1 [Example 93, 1-ethyl-3-(8-methyl-6-thiophen-3-yl-isoquinolin-3-yl)-urea]	2 µg/mL (≈ 6.42 µM)
CCNC(=O)Nc1cc2cccc(Cn3cc(CO)cn3)c2cn1 [Example 292, 1-ethyl-3-[8-(4-hydroxymethyl-pyrazol-1-ylmethyl)-isoquinolin-3-yl]-urea]	8 µg/mL (≈ 24.6 µM)
CCNC(=O)Nc1cc2cc(-c3ccc(F)nc3)cc(C)c2cn1 [Example 99, 1-ethyl-3-[6-(6-fluoro-pyridin-3-yl)-8-methyl-isoquinolin-3-yl]-urea]	2 µg/mL (≈ 6.17 µM)
CCNC(=O)Nc1cc2cccc(CNc3ncccn3)c2cn1 [Example 304, 1-ethyl-3-[8-(pyrimidin-2-ylaminomethyl)-isoquinolin-3-yl]-urea]	4 µg/mL (≈ 12.4 µM)
CCNC(=O)Nc1cc2cccc(COc3ccccc3C(=O)OC)c2cn1.Cl [Example 258, 2-[3-(3-ethyl-ureido)-isoquinolin-8-ylmethoxy]-benzoic acid methyl ester hydrochloride]	8 µg/mL

Further molecules by falling MIC, results first:

MIC	SMILES
16 µg/mL (≈ 49.2 µM)	CCNC(=O)Nc1cc2cc(-c3cscc3C)cc(C)c2cn1 [Example 80, 1-ethyl-3-[8-methyl-6-(4-methyl-thiophen-3-yl)-isoquinolin-3-yl]-urea]
16 µg/mL (≈ 42.4 µM)	CCNC(=O)Nc1cc2cc(-c3ccccc3C(=O)OCC)cc(C)c2cn1 [Example 85, 2-[3-(3-ethyl-ureido)-8-methyl-isoquinolin-6-yl]-benzoic acid ethyl ester]
16 µg/mL (≈ 47.4 µM)	CCNC(=O)Nc1cc2cccc(Nc3ccc(OC)nc3)c2cn1 [Example 214, 1-ethyl-3-[8-(6-methoxy-pyridin-3-ylamino)-isoquinolin-3-yl]-urea]
16 µg/mL	CCNC(=O)Nc1cc2cc(NCC3CC3)cc(C)c2cn1.Cl [Example 133, 1-{6-[(cyclopropylmethyl)-amino]-8-methyl-isoquinolin-3-yl}-3-ethyl-urea hydrochloride]
8 µg/mL	CCNC(=O)Nc1cc2cc(NCc3cccc(OC)c3)cc(C)c2cn1.Cl [Example 197, 1-ethyl-3-[6-(3-methoxy-benzylamino)-8-methyl-isoquinolin-3-yl]-urea hydrochloride]
8 µg/mL	CCNC(=O)Nc1cc2cccc(Nc3cccc(CC(=O)NCc4ccccc4)c3)c2cn1.Cl [Example 210, N-benzyl-2-{3-[3-(3-ethyl-ureido)-isoquinolin-8-ylamino]phenyl}-acetamide hydrochloride]
4 µg/mL (≈ 9.84 µM)	CCNC(=O)Nc1cc2cc(NC(=O)c3cccc(C(=O)OC)c3)cc(C)c2cn1 [Example 194, N-[3-(3-ethyl-ureido)-8-methyl-isoquinolin-6-yl]isophthalamic acid methyl ester]
4 µg/mL	CCNC(=O)Nc1cc2cccc(CNc3ccccn3)c2cn1.Cl [Example 263, 1-ethyl-3-[8-(pyridin-2-ylaminomethyl)-isoquinolin-3-yl]-urea hydrochloride]
4 µg/mL	CCNC(=O)Nc1cc2cccc(COc3cccc(O)c3)c2cn1.Cl [Example 213, 1-ethyl-3-[8-(3-hydroxy-phenoxymethyl)-isoquinolin-3-yl]-urea hydrochloride]
4 µg/mL (≈ 13.3 µM)	CCNC(=O)Nc1cc2c(CCC(N)=O)ccc(C)c2cn1 [Example 59, 3-[3-(3-ethyl-ureido)-8-methyl-isoquinolin-5-yl]-propionamide]
2 µg/mL (≈ 6.22 µM)	CCNC(=O)Nc1cc2c(-c3ccc(O)cc3)ccc(C)c2cn1 [Example 2, 1-ethyl-3-[5-(4-hydroxy-phenyl)-8-methyl-isoquinolin-3-yl]-urea]
2 µg/mL	CCNC(=O)Nc1cc2cccc(Nc3cccc(C)n3)c2cn1.Cl [Example 155, 1-ethyl-3-[8-(6-methyl-pyridin-2-ylamino)-isoquinolin-3-yl]-urea hydrochloride]
2 µg/mL (≈ 6.49 µM)	CCNC(=O)Nc1cc2cccc(Nc3cncnc3)c2cn1 [Example 149, 1-ethyl-3-[8-(pyrimidin-5-ylamino)-isoquinolin-3-yl]-urea]
2 µg/mL (≈ 6.17 µM)	CCNC(=O)Nc1cc2c(-c3cncc(F)c3)ccc(C)c2cn1 [Example 9, 1-ethyl-3-[5-(5-fluoro-pyridin-3-yl)-8-methyl-isoquinolin-3-yl]-urea]
2 µg/mL (≈ 6.17 µM)	CCNC(=O)Nc1cc2cc(-c3cccnc3F)cc(C)c2cn1 [Example 100, 1-ethyl-3-[6-(2-fluoro-pyridin-3-yl)-8-methyl-isoquinolin-3-yl]-urea]
1 µg/mL (≈ 3.08 µM)	CCNC(=O)Nc1cc2c(F)c(-c3ccccn3)cc(C)c2cn1 [Example 48, 1-ethyl-3-(5-fluoro-8-methyl-6-pyridin-2-yl-isoquinolin-3-yl)-urea]
1 µg/mL (≈ 3.24 µM)	CCNC(=O)Nc1cc2c(Br)ccc(C)c2cn1 [Example 1, 1-(5-bromo-8-methyl-isoquinolin-3-yl)-3-ethyl-urea]
1 µg/mL (≈ 2.74 µM)	CCNC(=O)Nc1cc2cccc(Nc3ccc(C)c(C(=O)O)c3)c2cn1 [Example 265, 5-[3-(3-ethyl-ureido)-isoquinolin-8-ylamino]-2-methyl-benzoic acid]
1 µg/mL (≈ 3.11 µM)	CCNC(=O)Nc1cc2c(-c3ccccc3O)ccc(C)c2cn1 [Example 3, 1-ethyl-3-[5-(2-hydroxy-phenyl)-8-methyl-isoquinolin-3-yl]-urea]
1 µg/mL (≈ 3.07 µM)	CCNC(=O)Nc1cc2c(-c3cscc3C)ccc(C)c2cn1 [Example 64, 1-ethyl-3-[8-methyl-5-(4-methyl-thiophen-3-yl)-isoquinolin-3-yl]-urea]
0.5 µg/mL (≈ 1.49 µM)	CCNC(=O)Nc1cc2cccc(Nc3cccc(OC)c3)c2cn1 [Example 168, 1-ethyl-3-[8-(3-methoxy-phenylamino)-isoquinolin-3-yl]-urea]
0.5 µg/mL (≈ 1.14 µM)	CCNC(=O)Nc1cc2cc(-c3cccc(NC(C)=O)c3)cc(Nc3cccnc3)c2cn1 [Example 236, N-{3-[3-(3-ethyl-ureido)-8-(pyridin-3-ylamino)-isoquinolin-6-yl]-phenyl}-acetamide]
0.5 µg/mL (≈ 1.3 µM)	CCNC(=O)Nc1cc2c(-c3ccc(S(N)(=O)=O)cc3)ccc(C)c2cn1 [Example 35, 4-[3-(3-ethyl-ureido)-8-methyl-isoquinolin-5-yl]-benzenesulfonamide]
0.5 µg/mL (≈ 1.37 µM)	CCCNc1cc(Nc2cccnc2)c2cnc(NC(=O)NCC)cc2c1 [Example 238, 1-ethyl-3-[6-propylamino-8-(pyridin-3-ylamino)-isoquinolin-3-yl]-urea]
0.25 µg/mL (≈ 0.6 µM)	CCNC(=O)Nc1cc2c(F)c(-c3cncc(C)c3)cc(Nc3cccnc3)c2cn1 [Example 235, 1-ethyl-3-[5-fluoro-6-(5-methyl-pyridin-3-yl)-8-(pyridin-3-ylamino)-isoquinolin-3-yl]urea]
0.25 µg/mL (≈ 0.664 µM)	CCNC(=O)Nc1cc2cc(-c3ccc(C(=O)N(C)C)cc3)cc(C)c2cn1 [Example 24, 4-[3-(3-ethyl-ureido)-8-methyl-isoquinolin-6-yl]-N,N-dimethyl-benzamide]
